Assay results: patent US11397184B2, “Selection of patients for combination therapy” (Syndax Pharmaceuticals, Inc., priority 2015, dated 2022)
Where two headings read alike, the source gives them in different places.

Columns and labels:
melanoma = conditions: cited from earlier work
[1] = system: advanced refractory malignancies; conditions: cited from earlier work
[2] = in vivo; cited from earlier work
[3] = system: T-cell subsets in PBMCs of breast cancer patients; experiment: ENCORE 301 blood samples: T-cell subsets and immune checkpoint receptor expression; format: in vivo, human; conditions: ENCORE 301 patients, C1D15 vs baseline
Experimental: FIG. 5 illustrates gating strategy for analysis of T-cell subsets in PBMCs of breast cancer patients. (A) Initial gating was on single viable cells. The CD4^+ T-cells were further divided into Tregs (CD8^−CD4^+CD25^hiFoxp3^+ cells) and Foxp3^−CD4^+ T-cells (CD8^−CD4^+Foxp3^− cells). (B) Immune checkpoint receptor expression was evaluated for CD8^+ T-cells, Foxp3^−CD4^+ T-cells, and Tregs. Representative histograms for PD-1 (left), CTLA-4 (middle), and TIM-3 (right) were shown.
CD8+ T-cell: CD4−, CD8+, Foxp3−.
CD4+ T-cell: CD8−, CD4+, Foxp3−.
Tregs: CD4+, CD8−, CD25hi, Foxp3+.
(§1) Monocytes were analyzed for three populations: (1) CD14+; (2) CD14+, HLA-DRhi; and (3) CD14+, HLA-DRlow/−. PD-1, CTLA-4, and TIM-3 were measured on CD8+ T-cells, CD4+ T-cells, and Tregs, and CD40 was measured on myeloid derived suppressor cells.
(§2) The percent change in subsets at C1D15 vs. baseline was assessed based on the following surface markers: Lin-MDSC (lin;CD3,CD19,CD56)-HLA-DR-CD11b+CD33+), granulocytic MDSC (CD14−CD11b+CD33+), monocytic MDSC (Lin−HLA-DR−CD11b+CD33+CD14+), immature MDSC (Lin−HLA-DR−CD11b+CD33+CD14−), CD8+T-cells (CD4−CD8+), Foxp3−CD4+T-cells (CD8−CD4+Foxp3−), and Tregs (CD4+CD8−CD25hiFoxp3+). Monocytes were analyzed for three populations: CD14+, CD14+HLA-DRhi, and CD14+HLA-DR-low/negative. In addition, PD-1, CTLA-4, and TIM-3 were measured on T-cell subsets, and CD40 was measured on MDSCs.

[4] = system: monocytic MDSCs, granulocytic MDSCs and Lineage cells from healthy donor PBMCs; experiment: In vitro dead cell dye staining of PBMCs cultured with IL-6 and GM-CSF, then DMSO or entinostat; format: cell-based, human; conditions: entinostat 0.5 μM vs DMSO, two or three days, n=7
Experimental: (C) Absolute viable cell counts of MDSCs (upper panel, monocytic MDSCs; lower panel, granulocytic MDSCs). Fresh PBMCs (2×10^6 PBMCs/well) were cultured with IL-6 (10 ng/ml) and GM-CSF (10 ng/ml). […] (D) Percentage of dead cell dye-positive cells in the monocytic MDSCs (red line), granulocytic MDSCs (blue line), and Lineage cells (black line). […] Percentage of dead cell dye-positive cells among each population (monocytic MDSCs, granulocytic MDSCs, and lineage cells) was calculated. Mean±SD is shown (n=7).

[5] = system: squamous or non-squamous NSCLC; conditions: cited from earlier work
[6] = system: advanced hormone receptor positive breast cancer; experiment: ENCORE 301 randomized, placebo-controlled phase II trial: clinical outcome (PFS, OS); format: in vivo, human; conditions: the 34 patients analysed for immune subsets
From the text: Blood was collected from a subset of 49 patients (27 EE and 22 EP) representative of the 130 patients enrolled in ENCORE 301 on cycle 1 day 1 (C1D1; pretreatment), C1D2, C1D8, and C1D15 for biomarker analyses. Of these 49, C1D1 and C1D15 samples were available from 34 patients (20 EE and 14 EP) for further analysis of circulating immune subsets.

[7] = system: myeloid derived suppressor cells in PBMCs of breast cancer patients; experiment: ENCORE 301 blood samples: flow cytometry of circulating MDSC subsets and CD40 on MDSCs, baseline vs C1D15; format: in vivo, human
From the text: (A) Gating strategy for analysis of MDSC phenotypes in PBMCs of breast cancer patients. Initial gating was on single viable CD45^+ cells. Lineage (CD3, CD19, CD56)^−HLA-DR^−CD11b^+CD33^+ cells were defined as Lin^−MDSCs. The Lin^−MDSCs were further divided into monocytic MDSCs (Lin^−HLA-DR^−CD11b^+CD33^+CD14^+ cells) and immature MDSCs (Lin^−HLA-DR^−CD11b^+CD33^+CD14^− cells). CD14^−CD11b^+CD33^+ cells were defined as granulocytic MDSCs. […]
(§3) Blood samples were obtained on cycle 1 day 1 (C1D1; pre-treatment), C1D2, C1D8, and C1D15 for biomarker analyses. […] Cell populations were based on the following surface markers, in which “X−” means negative for marker X, “X+” means positive for marker X, “Xlow/−” means low levels to absence of marker X, and “Xhi” means high levels of expression of marker X:
Myeloid derived suppressor cell: CD3−, CD19−, CD56−, HLA-DR−, CD11b+, CD33+.
PMN-MDSC: CD14−, CD11b+, CD33+.
M-MDSC: CD3−, CD19−, CD56−, HLA-DR−, CD11b+, CD33+, CD14+.
Immature MDSC: CD3−, CD19−, CD56−, HLA-DR−, CD11b+, CD33+, CD14−.
as §1, §2

[8] = system: CD14+ monocytes in PBMCs of breast cancer patients; experiment: ENCORE 301 blood samples: flow cytometry of circulating monocyte populations, baseline vs C1D15; format: in vivo, human
From the text: (A) Gating strategy for analysis of CD14^+ monocytes (left panel), CD14^+HLA-DR^hi monocytes (red box, right upper panel), and CD14^+HLA-DR^low/neg monocytes (blue box, right lower panel) in PBMCs of breast cancer patients. Initially gated on single viable CD45^+ cells. […] (D) HLA-DR expression on CD14^+ monocytes in vitro. […] Median fluorescence intensity, MFI.
as §3, §1, §2

[9] = C1D1 vs C1D15, statistic not stated
[10] = breast cancer patients, EP n = 14, EE n = 20, mean
[11] = breast cancer patients, EP n = 14, EE n = 20, median

Which results are given for “Pembrolizumab: humanized monoclonal IgG4 anti-PD-1 antibody”?
overall objective response rate (ORR) (melanoma; immune-related response criteria, 44 of 117): 38%; patients with some AEs (melanoma; in vivo): 79%; rate of severe toxicities, less dose intense cohorts (melanoma; in vivo): < 10%; median progression free survival (melanoma; melanoma): exceeded 7 months; patients with some degree of tumor regression (melanoma; melanoma): 77%; maximum tolerated dose ([1]; 1, 3 and 10 mg/kg intravenously): not reached; patients with some tumor regression ([1]; dose-escalation study): Four; half-life ([1]; in vivo): 13.6 to 21.7 days

Which results are given for `Nc1ccccc1NC(=O)c1ccc(CNC(=O)OCc2cccnc2)cc1` [Entinostat, N-(2-aminophenyl)-4-[N-(pyridine-3-yl)methoxycarbonylamino-methyl]-benzamide]?
half-life [2]: about 100 hours; alteration of expression of CTLA-4, PD-1, or TIM-3 on T-cell subsets [3]: did not significantly; percentage of dead (dead cell dye-positive) granulocytic MDSCs ([4]; P=0.016): increased; percentage of dead (dead cell dye-positive) monocytic MDSCs ([4]; P=0.016): increased; percentage of dead (dead cell dye-positive) lineage cells (CD3+, CD19+, or CD56+) ([4]; P=0.7): not increased

For “MPDL3280A: human anti-PD-L1 mAb with engineered Fc domain”, which “24-week PFS rate” value ([5]; non-squamous cell NSCLC) is on record?
The value was 46%.

And the “24-week PFS rate” value ([5]; squamous cell NSCLC)?
The value was 44%.

For `C=C1C[C@@H]2[C@H](CC[C@]3(C)C(=O)CC[C@@H]23)[C@@]2(C)C=CC(=O)C=C12` [EP], which “Overall Survival (OS)” value [6] is on record?
Its value is 20.3 months.

What about the “Progression Free Survival (PFS)” value [6] of the same molecule?
The value was 1.8 months.

What about the “change of M-MDSCs (monocytic MDSC)” value [7, 9] of the same molecule?
The value was “+1.97%”.

And the “change of PMN-MDSCs (granulocytic MDSC)” value [7, 9]?
Its value is “+20.56%”.

And the “change of immature MDSCs” value [7, 9]?
The value was −15.0%.

What about the “CD40 on Lin-MDSCs change from baseline to C1D15, Mean (SD)” value [7, 10] of the same molecule?
Its value is 14.85 (34.92) %.

What about the “CD40 on g-MDSCs change from baseline to C1D15, Mean (SD)” value [7, 10] of the same molecule?
Its value is 16.52 (32.07) %.

What about the “CD40 on immature MDSCs change from baseline to C1D15, Mean (SD)” value [7, 10] of the same molecule?
The value was 18.64 (35.15) %.

And the “CD40 on m-MDSCs change from baseline to C1D15, Mean (SD)” value [7, 10]?
The value was 3.37 (25.69) %.

What about the “Lin-MDSCs change from baseline to C1D15, Mean (SD)” value [7, 10] of the same molecule?
Its value is 1.28 (83.31) %.

And the “g-MDSCs change from baseline to C1D15, Mean (SD)” value [7, 10]?
The value was 20.56 (68.45) %.

What about the “immature MDSCs change from baseline to C1D15, Mean (SD)” value [7, 10] of the same molecule?
Its value is 4.92 (94.50) %.

What about the “m-MDSCs change from baseline to C1D15, Mean (SD)” value [7, 10] of the same molecule?
Its value is 28.24 (86.60) %.

And the “CD40 on Lin-MDSCs change from baseline to C1D15, Median (Min, Max)” value [7, 11]?
The value was 3.37 %.

What about the “CD40 on g-MDSCs change from baseline to C1D15, Median (Min, Max)” value [7, 11] of the same molecule?
Its value is 10.52 %.

And the “CD40 on immature MDSCs change from baseline to C1D15, Median (Min, Max)” value [7, 11]?
The value was 9.00 %.

And the “CD40 on m-MDSCs change from baseline to C1D15, Median (Min, Max)” value [7, 11]?
The value was 1.57 %.

What about the “Lin-MDSCs change from baseline to C1D15, Median (Min, Max)” value [7, 11] of the same molecule?
Its value is −22.11 %.

What about the “g-MDSCs change from baseline to C1D15, Median (Min, Max)” value [7, 11] of the same molecule?
Its value is 3.82 %.

What about the “immature MDSCs change from baseline to C1D15, Median (Min, Max)” value [7, 11] of the same molecule?
The value was −20.94 %.

What about the “m-MDSCs change from baseline to C1D15, Median (Min, Max)” value [7, 11] of the same molecule?
Its value is 1.97 %.

And the “HLA-DR levels (expression) on monocytes, change” value [8, 9]?
Its value is −4.7%.

And the “change of (number of) HLA-DR+ monocytes” value [8, 9]?
Its value is −11.38%.

And the “CD14+ change from baseline to C1D15, Mean (SD)” value [8, 10]?
Its value is −0.58 (22.73) %.

And the “CD14+HLA-DR HI change from baseline to C1D15, Mean (SD)” value [8, 10]?
Its value is −8.63 (17.77) %.

What about the “CD14+HLA-DR LO/NEG change from baseline to C1D15, Mean (SD)” value [8, 10] of the same molecule?
Its value is 13.45 (43.11) %.

And the “HLA-DR expression on CD14+ change from baseline to C1D15, Mean (SD)” value [8, 10]?
Its value is −6.23 (18.77) %.

What about the “CD14+ change from baseline to C1D15, Median (Min, Max)” value [8, 11] of the same molecule?
The value was 1.90 %.

What about the “CD14+HLA-DR HI change from baseline to C1D15, Median (Min, Max)” value [8, 11] of the same molecule?
Its value is −11.38 %.

And the “CD14+HLA-DR LO/NEG change from baseline to C1D15, Median (Min, Max)” value [8, 11]?
Its value is 1.55 %.

And the “HLA-DR expression on CD14+ change from baseline to C1D15, Median (Min, Max)” value [8, 11]?
The value was −4.74 %.
